In PMC7104388 (Journal of medicinal chemistry, 2019):

Experiments:
P. falciparum Dd2 = test: Parasite growth inhibition, parental Dd2; conditions: Plasmodium falciparum
[1] = tested on: wild-type Pf Dd2 parasites; test: Dual drug assay and isobologram analysis, 72 h; format: cell-based, P. falciparum; conditions: WHZ-04 in combination with WLW-VS
PAMPA permeability = format: in vitro ADME; conditions: pH 7.4
Pf 3D7 = test: Parasite growth inhibition, erythrocytic stage, SYBR Green 72 h
Pf20S β5 [2] = biological target: T1, Pf20S β5 (Plasmodium falciparum, UniProt A0A5K1K7U1+Q8IJT1)
T1 sequence (Q8IJT1 61-271): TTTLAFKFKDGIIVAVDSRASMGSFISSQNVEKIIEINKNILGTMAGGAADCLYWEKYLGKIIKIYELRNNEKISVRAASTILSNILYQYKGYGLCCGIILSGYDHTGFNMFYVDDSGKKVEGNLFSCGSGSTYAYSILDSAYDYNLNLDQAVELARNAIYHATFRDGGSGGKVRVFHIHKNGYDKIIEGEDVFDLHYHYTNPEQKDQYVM
T1 sequence (A0A5K1K7U1 29-240): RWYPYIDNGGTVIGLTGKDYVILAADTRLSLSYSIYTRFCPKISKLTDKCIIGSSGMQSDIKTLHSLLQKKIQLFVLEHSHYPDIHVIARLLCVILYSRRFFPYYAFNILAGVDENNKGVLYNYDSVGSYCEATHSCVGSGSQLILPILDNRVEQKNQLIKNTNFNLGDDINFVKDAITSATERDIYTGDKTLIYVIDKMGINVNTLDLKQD

[3] = tested on: P. falciparum clinical isolates (Uganda); test: Ex vivo 72-h growth inhibition of P. falciparum field isolates in Uganda; format: cell-based; conditions: Plasmodium falciparum, read-out: EC50 range against Ugandan isolates
Pf20S β5 [4] = biological target: T1, Pf20S β5; test: Pf20S active subunit labeling by MV151; format: binding, P. falciparum; conditions: Figure 2B
Pf20S β5 [5] = biological target: T1, Pf20S β5; test: biochemical; conditions: IC50 Pf20S β5, Table 3; mean of at least three independent experiments
i-20S β5i = i-20S β5i (Homo sapiens, UniProt P20618+P28062); test: human i-20S β5i enzyme inhibition; format: biochemical
c-20S β5c = c-20S β5c (Homo sapiens, UniProt P20618+P28074); test: human c-20S β5c enzyme inhibition; format: biochemical

Cc1cc(C(=O)N[C@@H](CC(=O)NC(C)(C)C)C(=O)NCCNC(=O)c2cccc(-n3cccn3)c2)no1 [TDI4258]
EC90 (P. falciparum Dd2): 60 nM

Cc1ccc(S(=O)(=O)N[C@@H](CC(=O)NC(C)(C)C)C(=O)NCCNC(=O)c2ccccc2)cc1 [WHZ-04]
type of interaction by isobologram analysis [1]: synergistic to additive
∑FIC ([1]; 72-h dual drug assay, three independent experiments): 0.52 ± 0.13
PAMPA @ pH7.4 (PAMPA permeability): 137 nm/sec

Cc1ccc(S(=O)(=O)N[C@@H](CC(=O)NC(C)(C)C)C(=O)NCCNC(=O)c2ccccc2F)cc1 [WHZ-05]
fold decrease in activity against cultured parasites compared to PKS21221 (Pf 3D7): 4.7 fold
PAMPA @ pH7.4 (PAMPA permeability): 105 nm/sec

Cc1ccc(S(=O)(=O)N[C@@H](CC(=O)NC(C)(C)C)C(=O)NCCNC(=O)c2ccc(F)cc2)cc1 [WHZ-07]
fold reduction in potency relative to WHZ-04 (Pf20S β5 [2]): 6 fold

Cc1ccc(S(=O)(=O)N[C@@H](CC(=O)NC(C)(C)C)C(=O)NCCNC(=O)c2ccccc2Cl)cc1 [WHZ-08]
fold reduction in potency relative to WHZ-04 (Pf20S β5 [2]): 10 fold

COc1cccc(C(=O)NCCNC(=O)[C@H](CC(=O)NC(C)(C)C)NS(=O)(=O)c2ccc(C)cc2)c1 [WHZ-12]
PAMPA @ pH7.4 (PAMPA permeability): 159 nm/sec
fold enhanced potency relative to WHZ-11 (Pf20S β5 [2]): 2.5 fold

C#Cc1cccc(C(=O)NCCNC(=O)[C@H](CC(=O)NC(C)(C)C)NS(=O)(=O)c2ccc(C)cc2)c1 [WHZ-13]
EC50 [3]: 4.4 to 16 nM
PAMPA @ pH7.4 (PAMPA permeability): 203 nm/sec
inhibition of labeling of Pf20S β5 by MV151 (Pf20S β5 [4]): only inhibited the labeling of the Pf20S β5
fold enhanced potency relative to WHZ-11 (Pf20S β5 [2]): 4.8 fold

Cc1ccc(S(=O)(=O)N[C@@H](CC(=O)NC(C)(C)C)C(=O)NCCNC(=O)c2c(O)cccc2F)cc1 [WHZ-20]
IC50 (Pf20S β5 [5]): 4060 nM
IC50 (i-20S β5i): 9970 nM
fold of selectivity, β5i over Pf20S β5 (i-20S β5i; in parenthesis in Table 3): 2.5 fold
IC50 (c-20S β5c): > 100000 nM
fold of selectivity, β5c over Pf20S β5 (c-20S β5c; in parenthesis in Table 3): > 24.7 fold

CCN(CC)CCCC(C)Nc1ccnc2cc(Cl)ccc12 (centres unmarked) [chloroquine, reference compound]
EC50 [3]: 4.5 to 27 nM
